Assay results reported in US20090275583A1, “ANTIVIRAL COMPOUNDS AND USE THEREOF” (Myriad Genetics, Incorporated, priority 2006, published 2009).
Like-named read-outs stand apart in the source and are kept apart here.

Key:
[1] = test system: HIV-1 laboratory strain, NL4-3; assay: MT-4 cytoprotection assay; format: cell-based
Experimental: The HTLV-1 transformed T cell line, MT-4, is highly susceptible to HIV-1 infection. Anti-HIV-1 agents were evaluated in this target cell line by protection from the HIV-induced cytopathic effect. In this assay, viability of both HIV-1 and mock-infected cells was assessed in a […] assay that monitors the ability of metabolically-active cells to reduce the tetrazolium salt WST-1. Cytoprotection by antiviral compounds is indicated by the positive readout of increased WST-1 cleavage.
Briefly, exponentially growing MT-4 cells were mock-infected or batch-infected with the HIV-1 laboratory strain, NL4-3, at a multiplicity of infection of 0.0005. Following a two hour infection, the cells were washed to remove unbound virus and plated in the presence of increasing concentrations of compound. After four days incubation, cytoprotection in the infected cells and compound toxicity in mock-infected cells were analyzed using the WST-1 assay.

HIV-1NL4-3 = assay: P4-MAGI assay; format: cell-based
From the text: P4 cells were used to test the effects of compounds on virus fusion activity. P4 cells are HIV-1 infectable CD4^+ HeLa cells that bear the bacterial lacZ gene under the control of a minimal HIV-1 LTR. Charneau, et. al., J. Mol. Biol. 241:651-662 (1994). When these cells are infected with HIV-1, β-galactosidase is expressed due to Tat activation of the viral LTR. In this assay, P4 cells were infected with the laboratory adapted strain HIV-1NL4-3 at a multiplicity of infection of 1 in the presence of DEAE-Dextran. Immediately after addition of virus to the cells, increasing concentrations of compound were added to the cells. […] The effect on cell viability (TC50, concentration of compound that inhibits growth by 50%) was determined in mock-infected cells with the WST-1 Cell Proliferation Reagent (Roche Diagnostics).

[2] = Human immunodeficiency virus 1, NL43, MT4, 96 h, MT-4 cells, four days incubation, WST-1 readout, read-out: MT4 EC50
[3] = Human immunodeficiency virus 1, 24 h, P4 cells, 24 hour incubation, β-galactosidase expression, read-out: P4-MAGI IC50
[4] = Human immunodeficiency virus 1, text statement, less than about 100 nm, read-out: P4-MAGI assay IC50
[5] = Human immunodeficiency virus 1, NL43, less than about 100 nm, read-out: MT-4 assay EC50 (concentration of compound that reduces the virus induced cytopathic effect by 50%)

SMILES	EC50 [1, 2] [nM]	IC50 (HIV-1NL4-3; [3]) [nM]	IC50 (HIV-1NL4-3; [4]) [nM]	EC50 [1, 5] [nM]
C=C(C)[C@@H]1CC[C@]2(C(=O)NCc3cccc(C(=O)NCCCCC(=O)O)c3)CC[C@]3(C)C(CCC4[C@@]5(C)CC[C@H](O)C(C)(C)C5CC[C@]43C)C12 (some centres unmarked) [Example 1]	615	49.3	–	–
C=C(C)[C@@H]1CC[C@]2(C(=O)NCc3cccc(C(=O)NCCCCCCC(=O)O)c3)CC[C@]3(C)C(CCC4[C@@]5(C)CC[C@H](O)C(C)(C)C5CC[C@]43C)C12 (some centres unmarked) [Example 2]	940	46.7	< 100	–
C=C(C)[C@@H]1CC[C@]2(C(=O)NCc3cccc(C(=O)NCCC(=O)O)c3)CC[C@]3(C)C(CCC4[C@@]5(C)CC[C@H](O)C(C)(C)C5CC[C@]43C)C12 (some centres unmarked) [Example 3]	10000	–	–	–
C=C(C)[C@@H]1CC[C@]2(C(=O)NCc3cccc(C(=O)NCCNC(C)=O)c3)CC[C@]3(C)C(CCC4[C@@]5(C)CC[C@H](O)C(C)(C)C5CC[C@]43C)C12 (some centres unmarked) [Example 4]	2300	155	–	–
C=C(C)[C@@H]1CC[C@]2(C(=O)NCc3cccc(C(=O)NCCNC(=O)OCc4ccccc4)c3)CC[C@]3(C)C(CCC4[C@@]5(C)CC[C@H](O)C(C)(C)C5CC[C@]43C)C12 (some centres unmarked) [Example 5]	2500	107	–	–
C=C(C)[C@@H]1CC[C@]2(C(=O)NCc3cccc(C(=O)NCc4cccc(C(=O)O)c4)c3)CC[C@]3(C)C(CCC4[C@@]5(C)CC[C@H](O)C(C)(C)C5CC[C@]43C)C12 (some centres unmarked) [Example 6]	71	15.6	< 100	< 100
C=C(C)[C@@H]1CC[C@]2(C(=O)NCc3cccc(C(=O)NCc4ccc(C(=O)O)cc4)c3)CC[C@]3(C)C(CCC4[C@@]5(C)CC[C@H](O)C(C)(C)C5CC[C@]43C)C12 (some centres unmarked) [Example 7]	7.2	21.4	< 100	< 100
C=C(C)[C@@H]1CC[C@]2(C(=O)NCc3cccc(C(=O)NCCc4ccc(C(=O)O)cc4)c3)CC[C@]3(C)C(CCC4[C@@]5(C)CC[C@H](O)C(C)(C)C5CC[C@]43C)C12 (some centres unmarked) [Example 9]	5.5	22.3	< 100	< 100
C=C(C)[C@@H]1CC[C@]2(C(=O)NCc3cccc(C(=O)NCCc4ccccc4C(=O)O)c3)CC[C@]3(C)C(CCC4[C@@]5(C)CC[C@H](O)C(C)(C)C5CC[C@]43C)C12 (some centres unmarked) [Example 10]	1300	128	–	–
C=C(C)[C@@H]1CC[C@]2(C(=O)NCc3cccc(C(=O)NCc4ccc(O)c(C(=O)O)c4)c3)CC[C@]3(C)C(CCC4[C@@]5(C)CC[C@H](O)C(C)(C)C5CC[C@]43C)C12 (some centres unmarked) [Example 13]	873	28	< 100	–
C=C(C)[C@@H]1CC[C@]2(C(=O)NCc3cccc(C(=O)NCCc4cccc(C(=O)O)c4)c3)CC[C@]3(C)C(CCC4[C@@]5(C)CC[C@H](O)C(C)(C)C5CC[C@]43C)C12 (some centres unmarked) [Example 16]	210	–	–	–
C=C(C)[C@@H]1CC[C@]2(C(=O)NCc3cccc(C(=O)NCc4cccc(C(=O)O)c4C)c3)CC[C@]3(C)C(CCC4[C@@]5(C)CC[C@H](O)C(C)(C)C5CC[C@]43C)C12 (some centres unmarked) [Example 17]	87	32	< 100	< 100
C=C(C)[C@@H]1CC[C@]2(C(=O)NCc3cccc(C(=O)Nc4ccc5cc(C(=O)O)ccc5c4)c3)CC[C@]3(C)C(CCC4[C@@]5(C)CC[C@H](O)C(C)(C)C5CC[C@]43C)C12 (some centres unmarked) [Example 18]	6100	108	–	–
C=C(C)[C@@H]1CC[C@]2(C(=O)NCc3cccc(C(=O)NCC(C)c4cccc(C(=O)O)c4)c3)CC[C@]3(C)C(CCC4[C@@]5(C)CC[C@H](O)C(C)(C)C5CC[C@]43C)C12 (some centres unmarked) [Example 19]	19	6.2	< 100	< 100
C=C(C)[C@@H]1CC[C@]2(C(=O)NCc3cccc(C(=O)NCc4cccc(-c5nn[nH]n5)c4)c3)CC[C@]3(C)C(CCC4[C@@]5(C)CC[C@H](O)C(C)(C)C5CC[C@]43C)C12 (some centres unmarked) [Example 21]	180	24.8	–	–
C=C(C)[C@@H]1CC[C@]2(C(=O)NCc3cccc(C(=O)NCc4ccc(C(=O)O)cc4F)c3)CC[C@]3(C)C(CCC4[C@@]5(C)CC[C@H](O)C(C)(C)C5CC[C@]43C)C12 (some centres unmarked) [Example 22]	9.7	15.4	–	< 100
C=C(C)[C@@H]1CC[C@]2(C(=O)NCc3cccc(C(=O)NCc4cccc(C(N)=O)c4)c3)CC[C@]3(C)C(CCC4[C@@]5(C)CC[C@H](O)C(C)(C)C5CC[C@]43C)C12 (some centres unmarked) [Example 23]	329	52.7	–	–
C=C(C)[C@@H]1CC[C@]2(C(=O)NCc3cccc(C(=O)NCc4cc(C(=O)OC)ccc4F)c3)CC[C@]3(C)C(CCC4[C@@]5(C)CC[C@H](O)C(C)(C)C5CC[C@]43C)C12 (some centres unmarked) [Example 24]	> 10000	186	–	–
C=C(C)[C@@H]1CC[C@]2(C(=O)NCc3cccc(C(=O)NCc4ccc(F)c(C(=O)OC)c4)c3)CC[C@]3(C)C(CCC4[C@@]5(C)CC[C@H](O)C(C)(C)C5CC[C@]43C)C12 (some centres unmarked) [Example 25]	100	40.4	< 100	< 100
C=C(C)[C@@H]1CC[C@]2(C(=O)NCc3cccc(C(=O)NCc4cc(C(=O)O)ccc4F)c3)CC[C@]3(C)C(CCC4[C@@]5(C)CC[C@H](O)C(C)(C)C5CC[C@]43C)C12 (some centres unmarked) [Example 26]	200	78.6	< 100	–
C=C(C)[C@@H]1CC[C@]2(C(=O)NCc3cccc(C(=O)NCc4ccc(F)c(C(=O)O)c4)c3)CC[C@]3(C)C(CCC4[C@@]5(C)CC[C@H](O)C(C)(C)C5CC[C@]43C)C12 (some centres unmarked) [Example 27]	73	53.5	< 100	< 100
C=C(C)[C@@H]1CC[C@]2(C(=O)NCc3cccc(C(=O)NCc4ccc(C(=O)OC)s4)c3)CC[C@]3(C)C(CCC4[C@@]5(C)CC[C@H](O)C(C)(C)C5CC[C@]43C)C12 (some centres unmarked) [Example 29]	18	37.9	< 100	< 100
C=C(C)[C@@H]1CC[C@]2(C(=O)NCc3cccc(C(=O)NCCc4ccc(F)c(C(=O)O)c4)c3)CC[C@]3(C)C(CCC4[C@@]5(C)CC[C@H](O)C(C)(C)C5CC[C@]43C)C12 (some centres unmarked) [Example 32]	3000	15	< 100	–
C=C(C)[C@@H]1CC[C@]2(C(=O)NCc3cccc(C(=O)NCCc4ccc(F)c(C(=O)OC)c4)c3)CC[C@]3(C)C(CCC4[C@@]5(C)CC[C@H](O)C(C)(C)C5CC[C@]43C)C12 (some centres unmarked) [Example 33]	18	135	–	< 100
C=C(C)[C@@H]1CC[C@]2(C(=O)NCc3ccc(C(=O)NCCC(=O)O)cc3)CC[C@]3(C)C(CCC4[C@@]5(C)CC[C@H](O)C(C)(C)C5CC[C@]43C)C12 (some centres unmarked) [Example 49]	10000	–	–	–
C=C(C)[C@@H]1CC[C@]2(C(=O)NCc3ccc(C(=O)NCCCCC(=O)O)cc3)CC[C@]3(C)C(CCC4[C@@]5(C)CC[C@H](O)C(C)(C)C5CC[C@]43C)C12 (some centres unmarked) [Example 50]	10000	–	–	–
C=C(C)[C@@H]1CC[C@]2(C(=O)NCc3ccc(C(=O)NCCCCCCC(=O)O)cc3)CC[C@]3(C)C(CCC4[C@@]5(C)CC[C@H](O)C(C)(C)C5CC[C@]43C)C12 (some centres unmarked) [Example 51]	10000	–	–	–
C=C(C)[C@@H]1CC[C@]2(C(=O)NCc3ccc(C(=O)NCCNC(C)=O)cc3)CC[C@]3(C)C(CCC4[C@@]5(C)CC[C@H](O)C(C)(C)C5CC[C@]43C)C12 (some centres unmarked) [Example 52]	10000	–	–	–
C=C(C)[C@@H]1CC[C@]2(C(=O)NCc3ccc(C(=O)NCCNC(=O)OCc4ccccc4)cc3)CC[C@]3(C)C(CCC4[C@@]5(C)CC[C@H](O)C(C)(C)C5CC[C@]43C)C12 (some centres unmarked) [Example 53]	10000	–	–	–
C=C(C)[C@@H]1CC[C@]2(C(=O)NCc3cccc(-c4noc(Cc5ccc(-c6nnn[nH]6)cc5)n4)c3)CC[C@]3(C)C(CCC4[C@@]5(C)CC[C@H](O)C(C)(C)C5CC[C@]43C)C12 (some centres unmarked) [Example 277]	–	10000	–	–
